US20150202186A1, “CYSTATHIONINE-(gamma)-LYASE (CSE) INHIBITORS FOR TREATING PAIN” (SOVA PHARMACEUTICALS, INC., priority 2014, published 2015)

Each molecule was assayed against recombinant CSE (cystathionine-γ-lyase) (UniProt P32929) (assay: CSE In Vitro Assay).
`CN(N)c1nnn(C)n1` [Compound 38] gave an IC50 of over 100 µM.
`COCCN(N)c1nnn[nH]1` [Compound 15] was tested, and the IC50 was 25 to 100 µM.
In the case of `CCN(N)c1nnn[nH]1` [Compound 13], the IC50 is reported as under 25 µM.
